Where two headings read alike, the source gives them in different places.
What was measured:
[1] = target: E. coli UDP-N-acetylglucosamine enolpyruvoyl transferase, MurA (Escherichia coli, UniProt P0A749); assay: biochemical; details: (E) E. coli enzyme
In short: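 Enzyme in 50 mM Tris/HCl pH 8.0 with 5 mM DTT and 20% glycerol was pre-incubated 10 min at 37° C with test compound in DMSO/water. Tris/BME and assay buffer then started the 1 hr, 37° C reaction, with a baseline 340 nm reading taken at start. Stop solution followed, and colour developed 30 minutes.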

[2] = target: E. coli Uridine-diphosphate-N-acetylmuramoyl-L-alanine: D-glutamate liease, MurD (Escherichia coli, UniProt P14900); assay: biochemical; details: (E) E. coli enzyme
Chain of E. coli Uridine-diphosphate-N-acetylmuramoyl-L-alanine: D-glutamate liease, MurD (P14900 whole entry): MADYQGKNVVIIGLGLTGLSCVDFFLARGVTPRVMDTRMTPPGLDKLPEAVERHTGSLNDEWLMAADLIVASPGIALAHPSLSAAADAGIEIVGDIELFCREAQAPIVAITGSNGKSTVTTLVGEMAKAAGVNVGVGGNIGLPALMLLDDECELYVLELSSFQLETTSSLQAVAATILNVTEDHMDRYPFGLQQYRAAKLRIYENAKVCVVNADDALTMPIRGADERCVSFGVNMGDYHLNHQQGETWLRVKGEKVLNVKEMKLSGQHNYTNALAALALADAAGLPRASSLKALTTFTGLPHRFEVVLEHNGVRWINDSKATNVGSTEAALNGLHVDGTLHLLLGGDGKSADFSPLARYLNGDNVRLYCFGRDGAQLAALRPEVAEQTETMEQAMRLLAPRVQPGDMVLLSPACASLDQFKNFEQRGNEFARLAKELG
In short: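 Compound working solutions reach 100 μg/mL in 50 mM Tris/HCl (pH 8.5) after dilution of 10 mg/mL DMSO stocks; final level in the well not given here. Reaction buffer finals: 2 mM ATP, 50 mM MgCl2, 83 mM Tris/HCl, pH 8.0.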

[3] = test system: larvae of blowfly, Lucilia sericata; assay: whole plant or invertebrate; details: dose rate of 20 ppm, Lucilia sericata larvae on treated filter paper with bovine serum
Procedure: Comparative Evaluation of the Efficacy of a 3-Aryl-4-hydroxyfuranone Compound Against Blowfly Larvae
In this evaluation, filter paper discs are treated with an acetone solution of test compound and allowed to dry. Bovine serum and newly emerged larvae of blowfly, Lucilia sericata, are added to the treated filter paper. Mortality is assessed at 24 h and 48 h. When more than one evaluation is performed, the data are averaged.

[4] = target: T1, S. aureus UDP-N-acetylglucosamine enolpyruvoyl transferase, MurA (Staphylococcus aureus, UniProt P84058); assay: Inhibitory activity against MurA (S. aureus); assay type: biochemical; details: (S) S. aureus enzyme
T1 sequence (P84058 1-421): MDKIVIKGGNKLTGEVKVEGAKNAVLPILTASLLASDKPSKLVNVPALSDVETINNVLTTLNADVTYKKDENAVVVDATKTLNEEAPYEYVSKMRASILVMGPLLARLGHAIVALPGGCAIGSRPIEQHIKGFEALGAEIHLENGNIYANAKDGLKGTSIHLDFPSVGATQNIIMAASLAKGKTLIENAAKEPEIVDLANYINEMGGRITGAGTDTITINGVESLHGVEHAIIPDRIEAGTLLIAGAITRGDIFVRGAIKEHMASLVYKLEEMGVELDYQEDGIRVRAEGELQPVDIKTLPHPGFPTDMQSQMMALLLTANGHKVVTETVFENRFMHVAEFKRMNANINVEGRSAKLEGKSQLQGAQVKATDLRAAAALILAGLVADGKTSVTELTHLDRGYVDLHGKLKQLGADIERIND
Procedure: Evaluation of the Inhibitory Activity of Test Compounds Against Enzymes which Catalyze Bacterial Cell Wall Biosynthesis
S. aureus and E. coli UDP-N-acetylglucosamine enolpyruvoyl transferase, MurA
Preparation of Enzyme Solution:
The enzyme solution is prepared by admixing the following: 50 mM Tris/HCl pH 8.0, […] 1 M Tris, 5 mM DTT, […] 1 M DTT, 20% Glycerol 4 ml 50% Glycerol, add water to 10 ml.
Preparation of Stop Solution:
The stop solution is prepared by mixing the following: 4.2% ammonium molybdate in 4N HCl, 8.4 g/200 ml 4N HCl, 0.045% malachite green, 90 mg/200 ml water, then stir 1 part ammonium molybdate with 2 parts malachite green for 30 min.
A procedure similar to that described by C. T. Walsh in Biochemistry 33, 10646-10651, is used to evaluate the inhibitory activity of test compounds against MurA, the enzyme which catalyzes the first step of bacterial cell wall biosynthesis. Experiments are performed by adding a solution of test compound (in a mixture of dimethylsulfoxide and water) and an enzyme solution to a well. After a pre-incubation period of 10 mintues at 37° C., Tris/BME buffer and assay buffer are added. A start point optical density (OD0) reading is taken at 340 nm immediately following the addition of assay buffer. After incubation for 1 hr at 37° C., the stop solution is added and the color is allowed to develop for 30 minutes. An end point OD1 reading at […] is then taken. […]

[5] = assessed at 24 h, read-out: % Mortality 24 h
[6] = assessed at 48 h, read-out: % Mortality 48 h

Chain of E. coli UDP-N-acetylglucosamine enolpyruvoyl transferase, MurA (P0A749 whole entry): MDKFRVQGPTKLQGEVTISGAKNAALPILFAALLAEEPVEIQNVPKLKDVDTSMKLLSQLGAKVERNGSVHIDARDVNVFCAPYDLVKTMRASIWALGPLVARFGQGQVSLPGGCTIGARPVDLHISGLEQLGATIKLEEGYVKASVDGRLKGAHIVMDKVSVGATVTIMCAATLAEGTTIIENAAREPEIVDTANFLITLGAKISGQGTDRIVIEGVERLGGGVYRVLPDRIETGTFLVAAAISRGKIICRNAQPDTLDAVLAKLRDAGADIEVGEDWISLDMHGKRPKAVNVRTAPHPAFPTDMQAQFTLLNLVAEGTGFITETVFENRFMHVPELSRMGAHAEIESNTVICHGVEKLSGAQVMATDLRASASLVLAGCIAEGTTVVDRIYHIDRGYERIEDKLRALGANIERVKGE

## O=C1O/C(=C\c2ccc(-c3cccc(C(F)(F)F)c3)cc2)C(O)=C1c1cccc(C(F)(F)F)c1
[1]
  MurA IC50: >25 (E) μg/mL
[2]
  MurD IC50: 24 µg/mL
[3]; assessed at 24 h
  % Mortality 24 h: 0%
[3]; assessed at 48 h
  % Mortality 48 h: 0%

## O=C1O/C(=C\c2ccc(-c3cc(Cl)cc(Cl)c3)cc2)C(O)=C1c1cc(Cl)cc(Cl)c1
[1]
  MurA IC50: 1 (E) μg/mL
[2]
  MurD IC50: 6 µg/mL
[3]; [5]
  mortality at 20 ppm: 0%
[3]; [6]
  mortality at 20 ppm: 0%

## O=C1OC(=Cc2ccc(-c3ccccc3)cc2)C(O)=C1c1cccc(C(F)(F)F)c1 (mixture of isomers) [Example 11]
[1]
  MurA IC50: 1 (E) μg/mL
[2]
  MurD IC50: 21 µg/mL

## Cc1ccc(C=C2OC(=O)C(c3ccc(Cl)cc3)=C2O)s1 (mixture of isomers) [Example 13]
[1]
  MurA IC50: 0.5 (E) μg/mL
[2]
  MurD IC50: > 25 µg/mL

## O=C1OC(=Cc2cccc3ccccc23)C(O)=C1c1ccc(C=NO)cc1 (mixture of isomers) [Example 73]
[4]
  MurA IC50: >25 (S) μg/mL

## O=C1O/C(=C\c2ccc(-c3ccccc3)cc2)C(O)=C1c1cccc(C(F)(F)F)c1 [Example 10]
[1]
  IC50: 2.45 µM
[2]
  IC50: 51.4 µM
other
  melting point: 240 to 241.5 °C

## Cc1ccc(C=C2OC(=O)C(c3ccc(Cl)cc3)=C2O)s1 [Example 14]
[1]
  MurA IC50: 5 (E) μg/mL

## O=C1O/C(=C\C2CCCCC2)C(O)=C1c1ccc(Cl)cc1 [Example 15]
[1]
  IC50: > 82 µM
[2]
  IC50: > 82 µM
other
  melting point: 200 to 205 °C

## O=C1OC(=CC2CCCCC2)C(O)=C1c1cccc(C(F)(F)F)c1 [Example 16]
[1]
  MurA IC50: >25 (E) μg/mL

## COc1cc(/C=C2\OC(=O)C(c3cccc(Cl)c3)=C2O)ccc1-c1ccccc1Cl [Example 18]
[4]
  IC50: 13.7 µM

## COc1ccccc1-c1ccc(/C=C2\OC(=O)C(c3cc(Cl)cc(Cl)c3)=C2O)cc1OC [Example 19]
[4]
  IC50: 36.2 µM
[2]
  IC50: > 53.3 µM

## COc1ccccc1-c1ccc(/C=C2\OC(=O)C(c3ccc(Cl)c(Cl)c3)=C2O)cc1OC [Example 20]
[4]
  IC50: > 53.3 µM
[2]
  IC50: > 53.3 µM

## COc1cc(/C=C2\OC(=O)C(c3cc(Cl)cc(Cl)c3)=C2O)ccc1-c1ccccc1Cl [Example 21]
[4]
  IC50: 10.6 µM

## COc1cc(/C=C2\OC(=O)C(c3cccc(Cl)c3)=C2O)ccc1-c1ccccc1C [Example 22]
[4]
  IC50: 21.5 µM

## COc1ccccc1-c1ccc(/C=C2\OC(=O)C(c3cccc(Cl)c3)=C2O)cc1C [Example 23]
[4]
  IC50: 33.4 µM

## COc1ccccc1-c1ccc(/C=C2\OC(=O)C(c3cc(Cl)cc(Cl)c3)=C2O)cc1C [Example 24]
[4]
  IC50: 15.4 µM

## COc1cc(/C=C2\OC(=O)C(c3cc(Cl)cc(Cl)c3)=C2O)ccc1-c1ccccc1C [Example 25]
[4]
  IC50: 11 µM

## Cc1cc(/C=C2\OC(=O)C(c3cccc(Cl)c3)=C2O)ccc1-c1ccccc1C(F)(F)F [Example 26]
[4]
  IC50: 8.76 µM

## Cc1cc(/C=C2\OC(=O)C(c3cc(Cl)cc(Cl)c3)=C2O)ccc1-c1ccccc1C(F)(F)F [Example 27]
[4]
  IC50: 4.07 µM

## Cc1ccccc1-c1ccc(/C=C2\OC(=O)C(c3cccc(Cl)c3)=C2O)cc1C [Example 28]
[4]
  IC50: 24.8 µM

## Cc1ccccc1-c1ccc(/C=C2\OC(=O)C(c3cc(Cl)cc(Cl)c3)=C2O)cc1C [Example 29]
[4]
  IC50: 4.57 µM

## Cc1cc(/C=C2\OC(=O)C(c3cccc(Cl)c3)=C2O)ccc1-c1ccccc1Cl [Example 30]
[4]
  IC50: 7.09 µM

## Cc1cc(C=C2OC(=O)C(c3cc(Cl)cc(Cl)c3)=C2O)ccc1-c1ccccc1Cl [Example 31]
[4]
  MurA IC50: 2 (S) μg/mL

## COc1cc(/C=C2\OC(=O)C(c3cccc(Cl)c3)=C2O)ccc1-c1ccccc1C(F)(F)F [Example 32]
[4]
  IC50: 21.1 µM

## COc1cc(/C=C2\OC(=O)C(c3cc(Cl)cc(Cl)c3)=C2O)ccc1-c1ccccc1C(F)(F)F [Example 33]
[4]
  IC50: 7.89 µM

## O=C1O/C(=C\c2ccc(N3CCOCC3)c(F)c2)C(O)=C1c1cc(Cl)cc(Cl)c1 [Example 34]
[4]
  MurA IC50: 22 (S) μg/mL

## COc1ccc(C=C2OC(=O)C(c3cccc(Cl)c3)=C2O)c2ccccc12 [Example 35]
[4]
  MurA IC50: >25 (S) μg/mL

## COc1ccc(/C=C2\OC(=O)C(c3cc(Cl)cc(Cl)c3)=C2O)c2ccccc12 [Example 36]
[4]
  IC50: 14.5 µM

## O=C1O/C(=C\c2ccc(N3CCOCC3)c3ccccc23)C(O)=C1c1cccc(Cl)c1 [Example 37]
[4]
  IC50: > 57.6 µM

## O=C1O/C(=C\c2ccc(N3CCOCC3)c3ccccc23)C(O)=C1c1cc(Cl)cc(Cl)c1 [Example 38]
[4]
  IC50: > 53.4 µM

## Cc1cc(/C=C2\OC(=O)C(c3cc(Cl)cc(Cl)c3)=C2O)ccc1-c1ccccc1OS(C)(=O)=O [Example 39]
[4]
  MurA IC50: 15 (S) μg/mL

## O=C1O/C(=C\c2cccc(C(F)(F)F)c2)C(O)=C1c1ccc2ccccc2c1 [Example 42]
[1]
  MurA IC50: 20 (E) μg/mL

## O=C1O/C(=C\C2CCCCC2)C(O)=C1c1ccc2ccccc2c1 [Example 51]
[1]
  IC50: > 78 µM
[2]
  IC50: > 78 µM

## CCOC(=O)c1cccc(C2=C(O)C(=Cc3cccc4ccccc34)OC2=O)c1 [Example 75]
[4]
  MurA IC50: >25 (S) μg/mL

## O=C1O/C(=C\c2cccc3ccccc23)C(O)=C1c1cccc(C=NO)c1 [Example 77]
[4]
  MurA IC50: >25 (S) μg/mL

## CN(C)c1ccc(/C=C2\OC(=O)C(c3ccc(Cl)cc3)=C2O)c2ccccc12 [Example 78]
[4]
  IC50: > 63.8 µM

## CN(C)c1ccc(/C=C2\OC(=O)C(c3cc(Cl)cc(Cl)c3)=C2O)c2ccccc12 [Example 79]
[4]
  IC50: 32.8 µM

## CN(C)c1ccc(C=C2OC(=O)C(c3cc(Cl)cc(Cl)c3)=C2O)c2ccccc12 [Example 80]
[4]
  MurA IC50: 15 (S) μg/mL

## CN(C)c1ccc(/C=C2\OC(=O)C(c3ccc(C(F)(F)F)cc3)=C2O)c2ccccc12 [Example 81]
[4]
  IC50: > 58.8 µM

## O=C1O/C(=C\c2cccc(C(F)(F)F)c2)C(O)=C1c1ccc(-c2ccccc2)c(F)c1 [Example 106]
[1]
  IC50: 21.1 µM

## O=C1O/C(=C\c2cccc(-c3cccc(Cl)c3)c2)C(O)=C1c1cccc(Cl)c1 [Example 134]
[1]
  MurA IC50: 5 (E) μg/mL
[2]
  MurD IC50: 6 µg/mL

## O=C1O/C(=C\c2cccc(-c3cc(Cl)cc(Cl)c3)c2)C(O)=C1c1cc(Cl)cc(Cl)c1 [Example 136]
[4]
  IC50: 2.09 µM
[2]
  IC50: 12.5 µM

## O=C1O/C(=C\c2ccccc2-c2ccc(Cl)cc2)C(O)=C1c1ccc(Cl)cc1 [Example 137]
[4]
  IC50: 31.8 µM

## O=C1O/C(=C\c2ccccc2-c2cccc(Cl)c2)C(O)=C1c1cccc(Cl)c1 [Example 140]
[4]
  IC50: 26.9 µM

## O=C1O/C(=C\c2ccccc2-c2ccc(Cl)c(Cl)c2)C(O)=C1c1ccc(Cl)c(Cl)c1 [Example 141]
[4]
  IC50: 6.27 µM

## O=C1O/C(=C\c2cc(C(F)(F)F)ccc2Cl)C(O)=C1c1ccc(N2CCOCC2)c(F)c1 [Example 142]
[4]
  MurA IC50: >25 (S) μg/mL

## O=C1O/C(=C\c2ccc(C(F)(F)F)cc2)C(O)=C1c1ccc(-c2ccccc2)cc1 [R=H, R1=4-(biphenyl), R2=4-CF3—C6H4]
[1]
  IC50: 46.5 µM
[2]
  IC50: 29.4 µM
[3]; [5]
  mortality at 20 ppm: 0%
[3]; [6]
  mortality at 20 ppm: 0%

## O=C1O/C(=C\c2ccc(-c3ccc(Cl)cc3)cc2)C(O)=C1c1ccc(Cl)cc1 [R=H, R1=4-Cl—C6H4, R2=4-(4′-Cl-biphenyl)]
[1]
  IC50: 14.7 µM
[2]
  IC50: 14.7 µM
[3]; [5]
  mortality at 20 ppm: 0%
[3]; [6]
  mortality at 20 ppm: 0%

## O=C1O/C(=C\c2cccc3ccccc23)C(O)=C1c1ccc(-c2ccccc2)cc1 [R=H, R1=4-biphenyl, R2=1-naphthyl]
[1]
  IC50: 58.9 µM
[2]
  IC50: > 64 µM
[3]; [5]
  mortality at 20 ppm: 100%
[3]; [6]
  mortality at 20 ppm: 100%
